In patent US6500824B1, “Kappa (OP2) opioid receptor antagonists” (Regents of the University of Minnesota, priority 1998, dated 2002):
Read-outs that look alike come from different tables or passages of the source. Marks after values point to notes of the source that are not given here.

Legend:
[1] = system: μ(OP3) opioid receptor; test: Guinea pig ileal longitudinal muscle (GPI) smooth muscle assay, antagonism of morphine; format: cell-based; settings: agonist morphine, antagonist concentration 100 nM
Description: (§1) 1. Guinea Pig Ileal Longitudinal Muscle (GPI). Ilea from guinea pigs were taken approximately 10 cm from the ileocecal junction, and a strip of longitudinal muscle with the myenteric plexus attached was prepared by the method of H. B. Rang et al., Brit. J Pharmacol., 1964, 22, 356. A 1 cm portion of this strip was then mounted between two platinum electrodes placed in a 10 ml organ bath and connected to an isometric transducer, contractions were recorded on a polygraph. Contractions of the ileal strip were initiated by supramaximal rectangular pulses in all preparations (80 V of 0.5 ms duration at a frequency of 0.1 Hz). Krebs bicarbonate solution containing […] chloropheniramine maleate was the bathing solution and was continuously bubbled with 95% O2 and 5% CO2. The organ bath was maintained at 36-37° C. The longitudinal strip was allowed to equilibrate with continuous stimulation for a minimum of 90 min. Cumulative concentration-response curves were determined after drugs were added to the bath in preselected amounts and washed out with buffer after noting their maximum effects.
(§2) The standard agonists employed were [D-Ala^2, D-Leu^5]enkephalin (DADLE) (D), morphine (M) and ethylketazocine (EKC); these are selective for delta (D), mu (M) and kappa (EKC) opioid receptors, respectively. Concentration-response curves were obtained in the absence (control) and the presence of the antagonist and were determined as IC50 values. The IC50 ratio represents the IC50 in the presence of the antagonist divided by the control IC50 value in the same tissue. A concentration independent value of antagonist potency is calculated from the equation, Ke=[antagonist]/(IC50 ratio-1).

[2] = molecular target: T1, μ[K303E] receptor (Rattus norvegicus, UniProt P33535, K303E); test: Competition binding with [3H]diprenorphine, whole cell binding, COS-7 cells, μ[K303E]; settings: for Fmut = mutational factor, Ki(mutant receptor)/Ki(wt κ receptor): μ[K303E]
T1 construct: expressed in transfected cells; host or cells: COS-7 (per the earlier reading)
Description: (§3) The effects of mutational exchange of Glu297 in the κ receptor and Lys303 in the μ receptor on the binding affinity of representative compounds of the invention were examined using techniques known in the art.

[3] = molecular target: T2, kappa (OP2) opioid receptor (Cavia porcellus, UniProt P41144); test: Guinea pig ileal longitudinal muscle (GPI) smooth muscle assay, antagonism of ethylketazocine (EKC); format: cell-based; settings: for kappa opioid receptor selectivity (in words): in vitro, versus morphine and DADLE antagonism
T2 construct: a strip of longitudinal muscle with the myenteric plexus attached was prepared; from tissue; host or cells: guinea pig ileal longitudinal muscle with myenteric plexus
Description: as §1, §2

[4] = molecular target: T3, wt κ receptor (Rattus norvegicus, UniProt P34975); test: Competition binding with [3H]diprenorphine, whole cell binding, COS-7 cells, wt κ
T3 construct: expressed in transfected cells; host or cells: COS-7 (per the earlier reading)
Description: as §3

[5] = molecular target: T4, κ[E297K] receptor (Rattus norvegicus, UniProt P34975, E297K); test: Competition binding with [3H]diprenorphine, whole cell binding, COS-7 cells, κ[E297K]; settings: for Fmut = mutational factor, Ki(mutant receptor)/Ki(wt κ receptor): κ[E297K]
T4 construct: expressed in transfected cells; host or cells: COS-7 (per the earlier reading)
Description: as §3

[6] = molecular target: T5, δ(OP1) opioid receptor (Mus musculus, UniProt P32300); test: Mouse vas deferens (MVD) smooth muscle assay, antagonism of DADLE; format: cell-based
T5 construct: Both vasa deferentia were dissected out of mice and mounted singly; from tissue; host or cells: mouse vas deferens
Description: 2. Mouse Vas Deferens (MvD). This assay was performed according to the description by G. Henderson et al., Brit. J. Pharmacol., 1972, 46,764. Both vasa deferentia were dissected out of mice and mounted singly through two platinum electrodes in a 10 ml organ bath. The bath contained Krebs bicarbonate solution that was continuously bubbled with 95% O2 and 5% CO2. The organ bath was maintained at 37° C. The tissue was attached to an isometric transducer and stimulated transmurally with rectangular pulses ([…], 1 ms duration, supramaximal voltage). Drugs were added cumulatively to the bath in preselected amounts and washed out after noting their maximum effects.
as §2

[7] = molecular target: T6, wt μ receptor (Rattus norvegicus, UniProt P33535); test: Competition binding with [3H]diprenorphine, whole cell binding, COS-7 cells, wt μ
T6 construct: expressed in transfected cells; host or cells: COS-7 (per the earlier reading)
Description: as §3

[8] = system: wt μ receptor; test: as above; parameters: species or system rat; settings: wt μ
Description: as §3

[9] = molecular target: T7, kappa opioid receptor (Cavia porcellus, UniProt P41144); test: GPI preparation, kappa antagonist potency against U-50488H; format: cell-based, guinea pig; settings: for Kb: read-out: Ke
T7 construct: a strip of longitudinal muscle with the myenteric plexus attached was prepared; from tissue; host or cells: guinea pig ileal longitudinal muscle with myenteric plexus
Description: as §1

[10] = molecular target: T8, mu opioid receptor (Mus musculus, UniProt P42866); test: Mouse tail flick assay, antagonism of morphine (μ) by ICV antagonist; format: in vivo; settings: antagonist ICV 50 pmol, agonist morphine
T8 construct: from tissue; host or cells: living mouse (ICV dosing)

[11] = Neuropeptide Y-induced feeding; format: in vivo; settings: FIG. 7
Description: (§4) The ability of a compound to decrease butorphanol-, DAMGO-, U50,488-, 24-hour deprivation-, and Neuropeptide Y-induced feeding can be determined using models known in the art. See for example, A. S. Levine et al., Brain Research, 1998, 534, 60-64; and D. C. Jewett, et al., 1998, Society for Neuroscience Abstracts, 1, Abstract #276.10, 705.

[12] = U50,488-induced feeding; format: in vivo; settings: FIG. 5
Description: as §4

[13] = molecular target: T9, kappa opioid receptor (Mus musculus, UniProt P33534); test: Mouse tail flick assay, antagonism of U-50488H (κ) by ICV antagonist; format: in vivo; parameters: from tissue; host or cells: living mouse (ICV or SC dosing)
[14] = molecular target: T9, kappa opioid receptor; test: Mouse abdominal stretch assay, antagonism of U-50488H antinociception by SC antagonist; format: in vivo; parameters: from tissue; host or cells: living mouse (SC dosing)
[15] = molecular target: T10, delta opioid receptor (Mus musculus, UniProt P32300); test: Mouse tail flick assay, antagonism of DSLET (δ) by ICV antagonist; format: in vivo; settings: antagonist ICV 50 pmol, agonist DSLET
T10 construct: from tissue; host or cells: living mouse (ICV dosing)

[16] = 24-hour deprivation-induced feeding; format: in vivo; settings: FIG. 6
Description: as §4

[17] = Butorphanol-induced feeding; format: in vivo; settings: FIG. 3
Description: as §4

[18] = DAMGO-induced feeding; format: in vivo; settings: FIG. 4
Description: as §4

[19] = GPI, agonist EKC, antagonist concentration 100 nM, read-out: Antagonist Potency Ke κ(OP2) EKC
[20] = [3H]diprenorphine competition, COS-7 whole cell binding, read-out: Ki ± SEM, wt κ
[21] = [3H]diprenorphine competition, COS-7 whole cell binding, read-out: Ki ± SEM, κ[E297K]
[22] = in vitro smooth muscle Ke, relative to nor-BNI

N#C/N=C(\N)Nc1ccc2[nH]c3c(c2c1)C[C@@]1(O)C2Cc4ccc(O)c5c4[C@@]1(CCN2CC1CC1)C3O5 (stereo partly drawn) [Compound 19, 5′-N′-Cyano-N-[17-(cyclopropylmethyl)-6,7-didehydro4.5α-epoxy-3,14-dihydroxyindolo[2′,3′:6,7]morphinian]-Guanidine]
Antagonist Potency Ke μ(OP3) Morphine [1]: 16.13 nM | Ki [2]: 0.29 ± 0.05 nM | Fmut = mutational factor, Ki(mutant receptor)/Ki(wt κ receptor) [2]: 1.1 | Kb [3]: 3.13 nM | kappa opioid receptor selectivity (in words) [3]: demonstrated selectivity | Ki [4]: 0.27 ± 0.01 nM | Fana = Ki(analog)/Ki(nor-BNI on the wt κ receptor) [4]: 2.25 | Ki [5]: 2.48 ± 0.82 nM | Fmut = mutational factor, Ki(mutant receptor)/Ki(wt κ receptor) [5]: 9.2 | Kb [6]: 9.08 nM | Ki [7]: 4.04 ± 1.23 nM | Fmut = mutational factor, Ki(mutant receptor)/Ki(wt κ receptor) [8]: 15

CCNC(=N)Nc1ccc2[nH]c3c(c2c1)C[C@@]1(O)[C@H]2Cc4ccc(O)c5c4[C@@]1(CCN2CC1CC1)[C@H]3O5.O.O.O=C(O)C(F)(F)F.O=C(O)C(F)(F)F [Compound 16, 5′-N-Ethylguanidinyl-17-cyclopropylmethyl-6,7-didehydro-4,5-α-epoxy-3,14-dihydroxyindolo[2′,3′:6,7]morphinan Ditrifluoroacetate Dihydrate]
Antagonist Potency Ke μ(OP3) Morphine [1]: 19.00 nM | Kb [3, 19]: 0.157 nM

CNC(=N)Nc1ccc2[nH]c3c(c2c1)C[C@@]1(O)[C@H]2Cc4ccc(O)c5c4[C@@]1(CCN2CC1CC1)[C@H]3O5.O.O.O=C(O)C(F)(F)F.O=C(O)C(F)(F)F [Compound 18, 5′-Methylguanidinyl-17-cyclopropylmethyl-6,7-didehydro4,5α-epoxy-3,14-dihydroxyindolo[2′,3′:6,7]morphinan Ditrifluoroacetate Dihydrate]
Antagonist Potency Ke μ(OP3) Morphine [1]: 10.8 nM | Kb [3, 19]: 0.59 nM

Oc1ccc2c3c1O[C@H]1c4[nH]c5c(c4C[C@@]4(O)[C@@H](C2)N(CC2CC2)CC[C@]314)C[C@@]1(O)[C@H]2Cc3ccc(O)c4c3[C@@]1(CCN2CC1CC1)[C@H]5O4 [nor-BNI, norbinaltorphimine, reference compound]
Kb ([9]; GPI, agonist U-50488H): 0.2 nM | Antagonist Potency Ke μ(OP3) Morphine [1]: 13.7 nM | Kb [3, 19]: 0.56 nM | Ki [4, 20]: 0.12 ± 0.04 nM | Ki [5, 21]: 12.5 ± 0.92 nM

Oc1ccc2c3c1O[C@H]1c4[nH]c5ccccc5c4C[C@@]4(O)[C@@H](C2)N(CC2CC2)CC[C@]314 [Naltrindole (NTI) 1, naltrindole, reference compound]
Kb [3, 19]: 45 nM

CCCCNC(=N)Nc1ccc2[nH]c3c(c2c1)C[C@@]1(O)[C@H]2Cc4ccc(O)c5c4[C@@]1(CCN2CC1CC1)[C@H]3O5.O.O.O=C(O)C(F)(F)F.O=C(O)C(F)(F)F [Compound 17, 5′-N-Butylguanidinyl-17-cyclopropylmethyl-6,7-didehydro4,5α-epoxy-3,14-dihydroxyindolo[2′,3′:6,7]morphinan Ditrifluoroacetate Dihydrate]
Kb [3, 19]: 0.09 nM

N#C/N=C(\NCCN1CCCC1)Nc1ccc2[nH]c3c(c2c1)C[C@@]1(O)C2Cc4ccc(O)c5c4[C@@]1(CCN2CC1CC1)C3O5 (stereo partly drawn) [Compound 21, 5′-N-Cyano-N′-[2-(1-aminoethylpyrrolidine)]-N″-[17-(cyclopropylmethyl)-6,7-didehydro4,5α-epoxy-3,14dihydroxyindolo[2′,3′:6,7]morphinian]-guanidine]
Antagonist Potency Ke μ(OP3) Morphine [1]: 5.71 nM | Kb [3]: 0.47 nM | Kb [6]: 127 nM

CN(C)CCCN/C(=N\C#N)Nc1ccc2[nH]c3c(c2c1)C[C@@]1(O)C2Cc4ccc(O)c5c4[C@@]1(CCN2CC1CC1)C3O5 (stereo partly drawn) [Compound 20, 5′-N-Cyano-N′-[3-(dimethylaminopropyl)]-N″-[17-(cyclopropylmethyl)6,7-didehydro4,5α-epoxy-3,14-dihydroxyindolo[2′,3′:6,7]morphinian]-guanidine]
Antagonist Potency Ke μ(OP3) Morphine [1]: 10.4 nM | Kb [3]: 0.24 nM

N=C(N)Nc1ccc2[nH]c3c(c2c1)C[C@@]1(O)[C@H]2Cc4ccc(O)c5c4[C@@]1(CCN2CC1CC1)[C@H]3O5.O.O.O=C(O)C(F)(F)F.O=C(O)C(F)(F)F [Compound 15, 5′-Guanidinyl-17-cyclopropylmethyl-6,7-didehydro-4,5-α-epoxy-3.14-dihydroxyindolo[2′,3′:6,7]morphinan Ditrifluoroacetate Dihydrate]
ED50 Ratio (limits), Morphine (μ) [10]: 0.8 (0.5-1.2) | Kb ([9]; GPI, agonist U-50488H): 0.041 nM | potency relative to nor-BNI, antagonism of U-50488H ([9]; GPI, agonist U-50488H, relative to nor-BNI): 5 fold | Selectivity Ratio κ/δ ([9]; δ agonist [D-Ala2, D-Leu5]enkephalin, κ agonist U-50488H): 2797 | Selectivity Ratio κ/μ ([9]; μ agonist morphine, κ agonist U-50488H): 728 | effect on Neuropeptide Y-induced feeding [11]: does not decreases | effect on U50,488-induced feeding [12]: decreases | Antagonist Potency Ke μ(OP3) Morphine [1]: 30.00 nM | Ki ([2]; [3H]diprenorphine competition, COS-7 whole cell binding, read-out: Ki ± SEM, μ[K303E]): 0.06 ± 0.02 nM | Fmut = mutational factor, Ki(mutant receptor)/Ki(wt κ receptor) [2]: 0.67 | Antagonist Potency Ke κ(OP2) EKC ([3]; GPI, agonist EKC, antagonist concentration 20 nM (*)): 0.144* nM | selectivity ratio κ/δ, fold greater than that of nor-BNI [3, 22]: 42 fold | selectivity ratio κ/μ, fold greater than that of nor-BNI [3, 22]: 9 fold | kappa opioid receptor selectivity (in words) ([3]; Ditrifluoroacetate Dihydrate): potent and highly selective | in vivo kappa selectivity (in words) ([13]; in vivo studies, Tables 2 and 3): selective κ-antagonist | ED50 Ratio (limits), U-50488H (κ) ([13]; mouse tail flick, antagonist ICV 50 pmol, agonist U-50488H): 4.5 (3.4-6.3) | Ki [4, 20]: 0.09 ± 0.01 nM | Fana = Ki(analog)/Ki(nor-BNI on the wt κ receptor) [4]: 0.75 | Ki [5, 21]: 12.9 ± 0.48 nM | Fmut = mutational factor, Ki(mutant receptor)/Ki(wt κ receptor) [5]: 143 | potency relative to nor-BNI, SC-administered ([14]; SC, relative to nor-BNI): greater than 50 times | ED50 Ratio (limits), U-50488H antinociception ([14]; antagonist SC 0.05 μmol kg−1, U-50488H SC): 3.0 (1.9-5.0) | ED50 Ratio (limits), U-50488H antinociception ([14]; antagonist SC 2.0 μmol kg−1, U-50488H SC): 3.8 (2.5-6.3) | ED50 Ratio (limits), DSLET (δ) [15]: 1.4 (1.0-2.2) | Antagonist Potency Ke δ(OP1) DADLE ([6]; agonist DADLE, antagonist concentration 100 nM): 115 nM | delta antagonist activity of NTI associated with the compound (in words) ([6]; in vitro): little, if any | effect on 24-hour deprivation-induced feeding [16]: decreases | Ki ([7]; [3H]diprenorphine competition, COS-7 whole cell binding, read-out: Ki ± SEM, wt μ): 9.23 ± 1.39 nM | Fmut = mutational factor, Ki(mutant receptor)/Ki(wt κ receptor) [8]: 103 | effect on Butorphanol-induced feeding [17]: does not decreases | effect on DAMGO-induced feeding [18]: decreases
